Experimental data: EP4786487A1, “PEPTIDE” (Peptidream Inc, priority 2023, dated 2025)
Read-outs that look alike come from different tables or passages of the source. Starred links: 1 amine or outer side, 2 acyl side, 3 side chain; linkers in the order of their positions; H or OH if unused. Positions of bridges follow the written chain, without caps; N, C: chain ends. Non-standard residues stand in square brackets, D forms with d. Residues, ends and D or L forms follow the SMILES beside them. Groups on a side chain read outwards from the residue. *: point of attachment. Phe(3-OCH2COOH) = N[C@@H](Cc1cccc(OCC(=O)O)c1)C(=O)O; Trp(1-Ph) = N[C@@H](Cc1cn(-c2ccccc2)c2ccccc12)C(=O)O; NMePhe(3-Ph) = CN[C@@H](Cc1cccc(-c2ccccc2)c1)C(=O)O; Trp(6-OH) = N[C@@H](Cc1c[nH]c2cc(O)ccc12)C(=O)O; Phe(4-COOH) = N[C@@H](Cc1ccc(C(=O)O)cc1)C(=O)O; Piperazinyl(4-CH2COOH) = O=C(O)CN1CCN(*)CC1; Piperidinyl(4-CH2COOH) = O=C(O)CC1CCN(*)CC1; Gly(Nα-CH2CH2CONH2) = NC(=O)CCNCC(=O)O; Gly(decyl) = CCCCCCCCCC[C@H](N)C(=O)O; Gly(N(CH2)3COOH) = O=C(O)CCCNCC(=O)O; Gly(octyl) = CCCCCCCC[C@H](N)C(=O)O; X1 = CCCCCCC[C@H](N[*:1])C(=O)[*:2]; Gly(N-(CH2)3OMe) = COCCCNCC(=O)O; NMeF = CN[C@@H](Cc1ccccc1)C(=O)O; 4Pal = N[C@@H](Cc1ccncc1)C(=O)O; NMeE = CN[C@@H](CCC(=O)O)C(=O)O; Cha = N[C@@H](CC1CCCCC1)C(=O)O; Ahp(2) = CCCCC[C@H](N)C(=O)O; NMeC = CN[C@@H](CS)C(=O)O; NMeA = CN[C@@H](C)C(=O)O; CO = O=C([*:1])[*:2]; Inp = O=C(O)C1CCNCC1; Sar = CNCC(=O)O

Tests used:
GDF-11 = target: T1, GDF-11 (Homo sapiens, UniProt O95390); assay: HepG2 reporter gene assay, Evaluation Procedure (2): 2-concentrations assay, GDF-11 inhibition; assay type: cell-based; conditions: for inhibition at 0.03 µM: HepG2, peptide 30nM, read-out: GDF11 Inhibition 30nM; for inhibition at 0.03 µM / inhibition at 0.1 µM: GDF-11 10 ng/mL; for inhibition at 0.1 µM: HepG2, peptide 100nM, read-out: GDF11 Inhibition 100nM; for inhibition: read-out: inhibition rate (GDF-11 inhibition assay)
T1 construct: purchased R&D systems 1958-GD-G8/CF
T1 sequence (O95390 299-407): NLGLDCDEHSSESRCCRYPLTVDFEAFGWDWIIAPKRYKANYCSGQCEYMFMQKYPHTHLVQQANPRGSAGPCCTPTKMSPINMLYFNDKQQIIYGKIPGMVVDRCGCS
Procedure, shortened: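 HepG2 cells carrying the transfected pGL3(CAGA)12-luc reporter, a pGL3 vector with luciferase placed downstream of 12 CAGA repeats, were stimulated with GDF-11 at a final 10 ng/mL together with test peptide. Blank wells received no GDF-11 and no peptide. Plates were incubated 20 to 24 hours at 37°C with 5% CO2. Luminescence from One-Glo substrate was read to calculate percent inhibition.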

Myostatin = target: T2, Myostatin (Homo sapiens, UniProt O14793); assay: HepG2 reporter gene assay, Evaluation Procedure (2): 2-concentrations assay, myostatin inhibition; assay type: cell-based; conditions: HepG2
T2 construct: active myostatin (also called mature myostatin) is a homodimer consisting of two C-terminal growth factor domains; purchased R&D systems 788-G8/CF
T2 sequence (O14793 267-375): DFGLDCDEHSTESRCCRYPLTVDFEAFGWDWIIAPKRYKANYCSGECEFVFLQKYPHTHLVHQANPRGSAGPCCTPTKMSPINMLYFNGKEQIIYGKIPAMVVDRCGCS
Procedure, shortened: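 HepG2 cells (HB-8065, ATCC) carrying the transfected pGL3(CAGA)12-luc reporter plasmid were treated with myostatin (788-G8/CF, R&D systems) at a final concentration of 10 ng/mL plus peptide and incubated at 37°C, 5% CO2 for 20 to 24 hours. Luminescence was read after adding PBS mixed 1:1 with One-Glo substrate, and inhibition rate was calculated.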

[1] = peptide 30nM, Myostatin 10 ng/mL, read-out: Myostatin Inhibition 30nM
[2] = peptide 100nM, Myostatin 10 ng/mL, read-out: Myostatin Inhibition 100nM
[3] = HepG2, first GDF-11 column of Table 7-3/7-4, GDF-11 10 ng/mL, peptide at the lower of the 2 concentrations
[4] = HepG2, second GDF-11 column of Table 7-3/7-4, GDF-11 10 ng/mL, peptide at the higher of the 2 concentrations
[5] = Table 7-3/7-4, myostatin 10 ng/mL, peptide at the higher of the 2 concentrations, read-out: inhibition rate (myostatin inhibition assay)
[6] = Table 7-3/7-4, myostatin 10 ng/mL, peptide at the lower of the 2 concentrations, read-out: inhibition rate (myostatin inhibition assay)

Compound | inhibition at 0.03 µM (GDF-11) | inhibition at 0.1 µM (GDF-11) | inhibition at 0.03 µM (Myostatin; [1]) | inhibition at 0.1 µM (Myostatin; [2]) | inhibition (GDF-11; [3]) | inhibition (GDF-11; [4]) | inhibition at 0.1 µM (Myostatin; [5]) | inhibition at 0.03 µM (Myostatin; [6])
CCCCCCC[C@@H]1NC(=O)[C@H](Cc2ccccc2)N(C)C(=O)[C@H](CCCNC(=N)N)NC(=O)[C@H](Cc2ccc(C(=O)O)cc2)NC(=O)[C@H](Cc2ccncc2)NC(=O)CN(C)C(=O)[C@H]([C@@H](C)CC)NC(=O)[C@H](Cc2ccccc2)N(C)C(=O)[C@H](Cc2ccc(O)cc2)NC(=O)[C@H](Cc2c[nH]c3ccccc23)NC(=O)[C@H](C)NC(=O)CN(CCCOC)C(=O)CSC[C@H](C(=O)O)NC(=O)[C@H](Cc2ccccc2)N(C)C(=O)[C@H](C)N(C)C1=O [Myostatin_99_v223] ({CH2CO}-[Gly(N-(CH2)3OMe)]AWY[NMeF]I[Sar][4Pal][Phe(4-COOH)]R[NMeF][X1][NMeA][NMeF][dC]-OH; thioether N-15) | 0% | 28% | 94% | 99% |  |  |  | 
CCCCCCCCCC[C@@H]1NC(=O)[C@H](CC2CCCCC2)NC(=O)[C@H](CCCNC(=N)N)NC(=O)[C@H](Cc2ccc(C(=O)O)cc2)NC(=O)[C@H](Cc2cccc(OCC(=O)O)c2)NC(=O)CN(C)C(=O)[C@H]([C@@H](C)CC)NC(=O)[C@H](Cc2ccccc2)N(C)C(=O)[C@H](Cc2ccc(O)cc2)NC(=O)[C@H](Cc2c[nH]c3ccccc23)NC(=O)[C@H](C)NC(=O)[C@H](CCCCNC(=O)N2CCN(CC(=O)O)CC2)NC(=O)CSC[C@H](C(=O)N2CCN(CC(=O)O)CC2)NC(=O)[C@H](Cc2ccccc2)N(C)C(=O)[C@H](C)N(C)C1=O [Myostatin_99_v259] ({CH2CO}-K([CO-Piperazinyl(4-CH2COOH)])AWY[NMeF]I[Sar][Phe(3-OCH2COOH)][Phe(4-COOH)]R[Cha][Gly(decyl)][NMeA][NMeF][dC]-{Piperazinyl(4-CH2COOH)}; thioether N-15) | 0% | 28% | 100% | 100% |  |  |  | 
CCCCCCCC[C@@H]1NC(=O)[C@H](Cc2ccccc2)N(C)C(=O)[C@H](CCCNC(=N)N)NC(=O)[C@H](Cc2ccc(C(=O)O)cc2)NC(=O)[C@H](Cc2cccc(OCC(=O)O)c2)NC(=O)CN(C)C(=O)[C@H]([C@@H](C)CC)NC(=O)[C@H](Cc2ccccc2)N(C)C(=O)[C@H](Cc2ccc(O)cc2)NC(=O)[C@H](Cc2c[nH]c3cc(O)ccc23)NC(=O)[C@H](C)NC(=O)CN(CCCOC)C(=O)CSC[C@H](C(N)=O)NC(=O)[C@H](Cc2ccccc2)N(C)C(=O)[C@H](C)N(C)C1=O [Myostatin_99_v414] ({CH2CO}-[Gly(N-(CH2)3OMe)]A[Trp(6-OH)]Y[NMeF]I[Sar][Phe(3-OCH2COOH)][Phe(4-COOH)]R[NMeF][Gly(octyl)][NMeA][NMeF][dC]-NH2; thioether N-15) |  |  |  |  | 0% | 44% | 100% | 100%
CCCCCCC[C@@H]1NC(=O)[C@H](Cc2ccccc2)N(C)C(=O)[C@H](CCCNC(=N)N)NC(=O)[C@H](Cc2ccc(C(=O)O)cc2)NC(=O)[C@H](Cc2cccc(OCC(=O)O)c2)NC(=O)[C@H](C)N(C)C(=O)[C@H]([C@@H](C)CC)NC(=O)[C@H](Cc2ccccc2)N(C)C(=O)[C@H](Cc2ccc(O)cc2)NC(=O)[C@H](Cc2c[nH]c3ccccc23)NC(=O)[C@H](C)NC(=O)[C@H](C)N(C)C(=O)[C@H](C)N(C)C(=O)CNC(=O)[C@H](Cc2ccccc2)N(C)C(=O)[C@H](C)N(C)C1=O [Myostatin_99_v455] (cyclo(AWY[NMeF]I[NMeA][Phe(3-OCH2COOH)][Phe(4-COOH)]R[NMeF][X1][NMeA][NMeF]G[NMeA][NMeA])) |  |  |  |  | 1% | 0% | 100% | 99%
CCCCCCC[C@@H]1NC(=O)[C@H](Cc2ccccc2)N(C)C(=O)[C@H](CCCNC(=N)N)NC(=O)[C@H](Cc2ccc(C(=O)O)cc2)NC(=O)[C@H](Cc2cccc(OCC(=O)O)c2)NC(=O)[C@H](C)N(C)C(=O)[C@H]([C@@H](C)CC)NC(=O)[C@H](Cc2ccccc2)N(C)C(=O)[C@H](Cc2ccc(O)cc2)NC(=O)[C@H](Cc2c[nH]c3ccccc23)NC(=O)[C@H](C)NC(=O)CN(CCCC(=O)O)C(=O)CSC[C@H](C(=O)N2CCC(C(N)=O)CC2)NC(=O)[C@H](Cc2ccccc2)N(C)C(=O)[C@H](C)N(C)C1=O [Myostatin_99_v433] ({CH2CO}-[Gly(N(CH2)3COOH)]AWY[NMeF]I[NMeA][Phe(3-OCH2COOH)][Phe(4-COOH)]R[NMeF][X1][NMeA][NMeF][dC][Inp]-NH2; thioether N-15) |  |  |  |  | 0% | 0% | 100% | 100%
CCCCCCCCCC[C@@H]1NC(=O)[C@H](Cc2ccccc2)N(C)C(=O)[C@H](CCCNC(=N)N)NC(=O)[C@H](Cc2ccc(C(=O)O)cc2)NC(=O)[C@H](Cc2cccc(OCC(=O)O)c2)NC(=O)CN(C)C(=O)[C@H]([C@@H](C)OC)NC(=O)[C@H](Cc2ccccc2)N(C)C(=O)[C@H](Cc2ccc(O)cc2)NC(=O)[C@H](Cc2c[nH]c3ccccc23)NC(=O)[C@H](C)NC(=O)[C@H](C)NC(=O)CSC[C@H](C(=O)N2CCC(CC(=O)O)CC2)NC(=O)[C@H](Cc2ccccc2)N(C)C(=O)[C@H](CCC(=O)O)N(C)C1=O [Myostatin_99_v340] ({CH2CO}-AAWY[NMeF]T(Me)[Sar][Phe(3-OCH2COOH)][Phe(4-COOH)]R[NMeF][Gly(decyl)][NMeE][NMeF][dC]-{Piperidinyl(4-CH2COOH)}; thioether N-15) |  |  |  |  | 0% | 0% | 100% | 95%
CC[C@H](C)[C@@H]1NC(=O)[C@H](Cc2ccccc2)N(C)C(=O)[C@H](Cc2ccc(O)cc2)NC(=O)[C@H](Cc2c[nH]c3ccccc23)NC(=O)[C@H](CCCNC(=N)N)NC(=O)[C@H](C)NC(=O)CSC[C@@H](C(N)=O)N(C)C(=O)[C@H](Cc2ccccc2)N(C)C(=O)[C@H](C)N(C)C(=O)[C@H](CC(C)C)NC(=O)[C@H](Cc2ccccc2)N(C)C(=O)[C@H](CCCNC(=N)N)NC(=O)[C@H](Cc2ccc(O)cc2)NC(=O)[C@H](Cc2ccc(O)cc2)NC(=O)CN(C)C1=O [Myostatin_000099_15meC] ({CH2CO}-ARWY[NMeF]I[Sar]YYR[NMeF]L[NMeA][NMeF][NMeC]-NH2; thioether N-15) | 0% | 4% | 50% | 75% |  |  |  | 
CCCCCCCCCC[C@@H]1NC(=O)[C@H](Cc2ccccc2)N(C)C(=O)[C@H](CCCNC(=N)N)NC(=O)[C@H](Cc2ccc(C(=O)O)cc2)NC(=O)[C@H](Cc2cccc(OCC(=O)O)c2)NC(=O)[C@H]2CCCN2C(=O)[C@H]([C@@H](C)CC)NC(=O)[C@H](Cc2ccccc2)N(C)C(=O)[C@H](Cc2ccc(O)cc2)NC(=O)[C@H](Cc2cn(-c3ccccc3)c3ccccc23)NC(=O)[C@H](C)NC(=O)[C@H](C)NC(=O)CSC[C@H](C(=O)N2CCN(CC(=O)O)CC2)NC(=O)[C@H](Cc2cccc(-c3ccccc3)c2)N(C)C(=O)[C@H](CCC(=O)O)N(C)C1=O [Myostatin_99_v331] ({CH2CO}-AA[Trp(1-Ph)]Y[NMeF]I[dP][Phe(3-OCH2COOH)][Phe(4-COOH)]R[NMeF][Gly(decyl)][NMeE][NMePhe(3-Ph)][dC]-{Piperazinyl(4-CH2COOH)}; thioether N-15) |  |  |  |  | 0% | 0% | 100% | 100%
CCCCC[C@@H]1NC(=O)[C@H](Cc2ccccc2)N(C)C(=O)[C@H](CCCNC(=N)N)NC(=O)[C@H](Cc2ccc(C(=O)O)cc2)NC(=O)[C@H](Cc2cccc(OCC(=O)O)c2)NC(=O)CN(C)C(=O)[C@H]([C@@H](C)CC)NC(=O)[C@H](Cc2ccccc2)N(C)C(=O)[C@H](Cc2ccc(O)cc2)NC(=O)[C@H](Cc2c[nH]c3ccccc23)NC(=O)[C@H](C)NC(=O)CN(CCC(N)=O)C(=O)CSC[C@H](C(=O)O)NC(=O)[C@H](Cc2ccccc2)N(C)C(=O)[C@H](C)N(C)C1=O [Myostatin_99_v242] ({CH2CO}-[Gly(Nα-CH2CH2CONH2)]AWY[NMeF]I[Sar][Phe(3-OCH2COOH)][Phe(4-COOH)]R[NMeF][Ahp(2)][NMeA][NMeF][dC]-OH; thioether N-15) | 0% | 0% | 18% | 58% |  |  |  | 
